Measured values reported in patent publication US20110118238A1, “2-ANILINOPURIN-8-ONES AS INHIBITORS OF TTK/MPS1 FOR THE TREATMENT OF PROLIFERATIVE DISORDERS” (ASTRAZENECA AB, priority 2007, published 2011).

Legend:
[1] = biological target: T1, N-terminal GST tagged full length human TTK kinase (Homo sapiens, UniProt P33981); assay: In Vitro TTK Kinase Assay 2 (Caliper LabChip LC3000); assay type: biochemical; conditions: recombinant TTK, 12 μM ATP, read-out: EAA2: Enzyme Assay Activity (In Vitro TTK kinase assay 2)
T1 construct: N-terminal GST tagged full length human TTK kinase; GST (N); made in house; host or cells: insect cells
T1 sequence (P33981 1-857): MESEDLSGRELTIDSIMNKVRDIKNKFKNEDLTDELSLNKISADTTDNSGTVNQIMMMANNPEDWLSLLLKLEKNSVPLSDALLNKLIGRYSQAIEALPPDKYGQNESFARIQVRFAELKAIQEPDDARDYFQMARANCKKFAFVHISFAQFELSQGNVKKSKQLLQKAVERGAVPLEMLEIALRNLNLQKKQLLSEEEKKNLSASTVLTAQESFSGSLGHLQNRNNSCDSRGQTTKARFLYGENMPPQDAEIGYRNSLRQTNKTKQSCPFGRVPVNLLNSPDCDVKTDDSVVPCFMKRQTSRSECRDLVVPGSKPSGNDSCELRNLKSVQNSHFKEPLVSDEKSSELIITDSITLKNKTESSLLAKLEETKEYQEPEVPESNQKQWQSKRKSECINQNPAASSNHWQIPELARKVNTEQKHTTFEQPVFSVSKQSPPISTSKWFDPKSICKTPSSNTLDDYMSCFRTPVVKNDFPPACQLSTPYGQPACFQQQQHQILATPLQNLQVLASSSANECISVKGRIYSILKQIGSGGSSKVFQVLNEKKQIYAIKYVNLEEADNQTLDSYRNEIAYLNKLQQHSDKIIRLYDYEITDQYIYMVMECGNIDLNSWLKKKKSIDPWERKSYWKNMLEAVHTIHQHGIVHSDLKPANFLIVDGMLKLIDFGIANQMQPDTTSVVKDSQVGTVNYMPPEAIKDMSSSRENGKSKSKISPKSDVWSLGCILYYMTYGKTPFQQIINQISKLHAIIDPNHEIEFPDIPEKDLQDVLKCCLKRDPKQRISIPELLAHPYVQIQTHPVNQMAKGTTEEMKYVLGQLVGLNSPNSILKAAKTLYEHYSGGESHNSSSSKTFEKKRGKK
Description: Each reaction was stopped by the addition of EDTA to a concentration of 40 mM in a solution which also comprised 0.1% coating reagent (Caliper LS), 100 mM HEPES pH 7.5, 0.015% v/v Brij™-35 and 5% DMSO. The stopped enzyme reactions were sipped through capillaries onto a Caliper chip where the peptide substrate and phosphorylated product were separated and detected via laser-induced fluorescence.

[2] = test system: human colon tumour cell line HT29; assay: Spindle Checkpoint Abrogation Assay (phosphohistone H3 serine 10); assay type: cell-based; conditions: HT-29, HT29 cells, paclitaxol 7.8 nM, compound 5 h, histone H3 serine 10 positive cells, read-out: SCAA: Spindle checkpoint abrogation assay activity
Description: Chromosome condensation in mitosis is accompanied by phosphorylation of histone H3 on serine 10. Dephosphorylation begins in anaphase and ends at early telophase, thus histone H3 serine 10 phosphorylation acts as an excellent mitotic marker. Paclitaxol is a microtubule stabilising drug which perturbs microtubule dynamics, invokes the spindle checkpoint and arrests cells in mitosis. These cells are positive for histone H3 serine 10 phosphorylation. Inhibition of the spindle checkpoint overrides the mitotic block in the presence of paclitaxol and the histone H3 serine 10 endpoint is used as a marker to determine the ability of compounds of the present invention to exit mitotic arrest prematurely.
Cells of the human colon tumour cell line HT29 were seeded into 96 well black plates (Costar, Catalogue No 3904) in phenol red free Dulbecco's Modified Eagles Medium (DMEM) supplemented with 10% (v/v) FCS and 1% (v/v) L-Glutamine and incubated overnight at 37° C. Paclitaxol was added to the cells at a concentration of 7.8 nM and the cells incubated overnight prior to compound dosing. Test compounds were solubilised in DMSO, diluted to give a range of final assay concentrations, added to cells and incubated for 5 h at 37° C. […] The raw assay data were analysed by non-linear regression analysis and used to determine an IC50 value for each compound.

Row | IC50 [1] [nM] | IC50 [2] [nM] | SMILES
1 | 626 | 3700 | CN1CCN(S(=O)(=O)c2ccc(Nc3ncc4c(n3)n(C3CCCC3)c(=O)n4C)cc2)CC1 [Example 13, 9-Cyclopentyl-7-methyl-2-({4-[(4-methylpiperazin-1-yl)-sulfonyl]-phenyl}amino)-7,9-dihydro-8H-purin-8-one]
2 | 131 | 2300 | Cn1c(=O)n(C2CCCC2)c2nc(Nc3ccc(S(C)(=O)=O)cc3F)ncc21 [Example 3, 9-Cyclopentyl-2-{[2-fluoro-4-(methylsulfonyl)phenyl]amino}-7-methyl-7,9-dihydro-8H-purin-8-one]
